Laboratory results taken from US12624026B2, “Inhibitors of SARM1” (Disarm Therapeutics, Inc., priority 2018, dated 2026).

What follows are compounds tested against T1, SARM1 SAM-TIR (Homo sapiens, UniProt Q6SZW1) (assay: biochemical). Conditions: not given.
T1 construct: a fragment of the SARM1 molecule encompassing the SAM and TIR domains; made in house; host or cells: NRK1-HEK293T cells, transiently transfected; the cleared, unpurified lysate was used as the enzyme
T1 sequence (Q6SZW1 409-724 limits assumed): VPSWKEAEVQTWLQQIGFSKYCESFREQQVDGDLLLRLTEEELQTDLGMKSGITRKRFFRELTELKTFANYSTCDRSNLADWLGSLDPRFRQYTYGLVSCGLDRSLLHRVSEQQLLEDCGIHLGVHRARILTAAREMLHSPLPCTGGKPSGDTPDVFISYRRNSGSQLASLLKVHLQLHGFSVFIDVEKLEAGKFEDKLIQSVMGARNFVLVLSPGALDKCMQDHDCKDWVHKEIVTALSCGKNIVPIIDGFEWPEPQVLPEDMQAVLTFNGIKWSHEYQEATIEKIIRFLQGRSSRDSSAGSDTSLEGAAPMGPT
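Further: inhibition of SARM1 SAM-TIR NADase activity, i.e. NAD+ cleavage, using lysate of NRK1-HEK293T cells overexpressing the SAM-TIR fragment.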

SMILES	IC50 [µM]
O=C(c1c(Nc2ccccc2C(F)(F)F)s[nH]c1=O)N1CCCC1 [Example 110]	1 to 5
N#Cc1c(Nc2cccc(C3=CCNCC3)c2C(F)(F)F)s[nH]c1=O [Example 131]	< 1

Same assay, conditions: SAM-TIR lysate 5 μg/mL, 2 h pre-incubation, 5 μM NAD+, RapidFire MS of NAD+ and ADPR; read-out: SARM1 IC50

SMILES	IC50 [µM]
N#Cc1c(Nc2ccccc2C(F)(F)F)sn(Cc2ccccn2)c1=O [Example 62]	< 1
Cn1sc(Nc2c(Cl)ccc3c2CCCO3)c(C#N)c1=O [Example 66]	< 1
Cn1sc(Nc2c(Cl)ccc3ncccc23)c(C#N)c1=O [Example 52]	< 1
Cc1ccc(Nc2snc(O)c2C#N)cc1 [Example 3]	1 to 5
COCCN(C)C(=O)c1c(Nc2c(Cl)cccc2Cl)s[nH]c1=O [Example 119]	> 5
N#Cc1c(N2CCc3ccccc32)s[nH]c1=O [Example 162]	> 5
N#Cc1c(O)nsc1NCc1ccccc1 [Example 24]	> 5
N#Cc1c(Nc2ccccc2C(F)(F)F)sn(C[C@H]2CCOC2)c1=O [Example 63]	< 1
N#Cc1c(O)nsc1Nc1c(Cl)cccc1Cl [Example 16]	< 1
N#Cc1c(O)nsc1Nc1cccnc1 [Example 20]	> 5
COCCN(C)C(=O)c1c(Nc2ccccc2C(F)(F)F)s[nH]c1=O [Example 116]	> 5
COCCn1sc(N(C)c2ccccc2C(F)(F)F)c(-c2ncon2)c1=O [Example 160]	> 5
COCCn1sc(Nc2c(Cl)cccc2Cl)c(C#N)c1=O [Example 73]	< 1
N#Cc1c(NC2CCCCC2)s[nH]c1=O [Example 170]	> 5
Cn1sc(Nc2c(Cl)cccc2Cl)c(C#N)c1=O [Example 46]	< 1
COc1cccc(C(F)(F)F)c1Nc1s[nH]c(=O)c1C#N [Example 103]	< 1
N#Cc1c(Nc2ccccc2C(F)(F)F)sn(CCC(N)=O)c1=O [Example 36]	< 1
CN(C)C(=N)c1c(Nc2ccccc2C(F)(F)F)s[nH]c1=O [Example 138]	1 to 5
CN(C)C(=N)c1c(Nc2cccc(Cl)c2Cl)s[nH]c1=O [Example 133]	< 1
Cn1sc(Nc2ccccc2Cl)c(C#N)c1=O [Example 32]	< 1
N#Cc1c(O)nsc1Nc1cc(Cl)cc(Cl)c1 [Example 10]	1 to 5
C[C@H](c1ccccc1)n1sc(Nc2ccccc2C(F)(F)F)c(C#N)c1=O [Example 89]	< 1
C[C@@H](c1ccccc1)n1sc(Nc2c(Cl)cccc2Cl)c(C(=N)N(C)C)c1=O [Example 134]	1 to 5
COc1ccc2nc(C)ccc2c1Nc1s[nH]c(=O)c1C#N [Example 106]	1 to 5
Cn1sc(Nc2c(Cl)ccc3c2cnn3C)c(C#N)c1=O [Example 48]	< 1
COc1cccc(C)c1Nc1sn(C)c(=O)c1C#N [Example 93]	< 1
N#Cc1c(O)nsc1Nc1ccccc1 [Example 1]	1 to 5

SMILES	IC50 [µM]
CC(O)Cn1sc(Nc2ccccc2C(F)(F)F)c(C#N)c1=O (centres unmarked) [Example 43]	< 1
COc1cccc(OC)c1Nc1s[nH]c(=O)c1C#N [Example 113]	1 to 5
CN(C(=O)c1c(Nc2ccccc2C(F)(F)F)s[nH]c1=O)c1ccccc1 [Example 172]	1 to 5
NC(=O)c1c(O)nsc1Nc1cccc(Cl)c1Cl [Example 18]	1 to 5
Cn1sc(Nc2ccc(Cl)c3c2CCO3)c(C#N)c1=O [Example 41]	< 1
CCn1sc(Nc2ccccc2C(F)(F)F)c(C#N)c1=O [Example 65]	< 1
Cn1sc(Nc2cccc3c2CCCO3)c(C#N)c1=O [Example 75]	< 1
Cc1cccc(C)c1Nc1snc(O)c1C#N [Example 22]	1 to 5
N#Cc1c(O)nsc1Nc1ccc2cccnc2c1 [Example 29]	1 to 5
O=C(c1c(Nc2c(Cl)cccc2Cl)s[nH]c1=O)N1CCOCC1 [Example 153]	1 to 5
CN(c1ccccc1C(F)(F)F)c1snc(O)c1C#N [Example 30]	> 5
C[C@@H](c1ccccc1)n1sc(Nc2c(Cl)cccc2Cl)c(C(=O)N2CCOCC2)c1=O [Example 167]	1 to 5
N#Cc1c(O)nsc1Nc1ccc2ccccc2c1 [Example 28]	1 to 5
N#Cc1c(Nc2cccc(C3CCNCC3)c2C(F)(F)F)s[nH]c1=O [Example 163]	> 5
Cn1ccc(Cn2sc(Nc3ccccc3C(F)(F)F)c(C#N)c2=O)n1 [Example 56]	< 1
COCCN(C)C(=N)c1c(Nc2ccccc2C(F)(F)F)s[nH]c1=O [Example 141]	1 to 5
COCCn1sc(Nc2ccccc2C(F)(F)F)c(-c2ncon2)c1=O [Example 152]	> 5
N#Cc1c(O)nsc1Nc1cccc2ccccc12 [Example 26]	< 1
C[C@@H](c1ccccc1)n1sc(Nc2ccccc2C(F)(F)F)c(C(=N)N2CCOCC2)c1=O [Example 137]	1 to 5
COC(C)(C)Cn1sc(Nc2ccccc2C(F)(F)F)c(C#N)c1=O [Example 97]	< 1
Cn1sc(Nc2c(Cl)ccc3c2CCO3)c(C#N)c1=O [Example 40]	< 1
N#Cc1c(Nc2ccccc2C(F)(F)F)sn(CCCCCNC(=O)CCCC[C@@H]2SC[C@@H]3NC(=O)N[C@@H]32)c1=O [Example 175]	< 1
CN(C)C(=O)c1c(Nc2ccccc2C(F)(F)F)s[nH]c1=O [Example 115]	1 to 5
COCCn1sc(Nc2cccc(Cl)c2Cl)c(C#N)c1=O [Example 58]	< 1
Cn1sc(Nc2cccc(Cl)c2Cl)c(C#N)c1=O [Example 37]	< 1
C#CCOCCOCCOCCn1sc(Nc2ccccc2C(F)(F)F)c(C#N)c1=O [Example 180]	< 1

Further lines, results first:

IC50 [µM]	SMILES
< 1	Cn1sc(Nc2cccc3ncccc23)c(C#N)c1=O [Example 53]
< 1	N#Cc1c(Nc2cccc(Cl)c2Cl)sn(CCO)c1=O [Example 34]
< 1	N#Cc1c(Nc2ccccc2C(F)(F)F)sn(C[C@@H]2CCOC2)c1=O [Example 60]
< 1	CC(C)(O)Cn1sc(Nc2c(F)cccc2Cl)c(C#N)c1=O [Example 67]
< 1	C[C@@H](c1ccccc1)n1sc(Nc2ccccc2C(F)(F)F)c(C#N)c1=O [Example 94]
< 1	N#Cc1c(Nc2ccccc2C(F)(F)F)sn(CCC(=O)N2CCC(N3CCC3)CC2)c1=O [Example 78]
< 1	CC(C)(O)Cn1sc(Nc2c(Cl)cccc2Cl)c(C#N)c1=O [Example 101]
1 to 5	O=C(c1c(Nc2ccccc2C(F)(F)F)s[nH]c1=O)N1CCOCC1 [Example 148]
< 1	Cc1ccc2ncccc2c1Nc1sn(C)c(=O)c1C#N [Example 81]
1 to 5	N#Cc1c(O)nsc1Nc1ccc(Cl)cc1 [Example 5]
< 1	N#Cc1c(Nc2ccccc2C(F)(F)F)sn(CC2(O)CC2)c1=O [Example 61]
> 5	CC(C)c1ccc(Nc2snc(O)c2C#N)cc1 [Example 4]
1 to 5	COCCN(C)C(=N)c1c(Nc2cccc(Cl)c2Cl)s[nH]c1=O [Example 139]
< 1	N#Cc1c(O)nsc1Nc1ccccc1Cl [Example 2]
< 1	COCCN(C)C(=N)c1c(Nc2cccc(Cl)c2Cl)sn(CCOC)c1=O [Example 124]
< 1	COCCn1sc(Nc2c(OC)cccc2C(F)(F)F)c(C#N)c1=O [Example 57]
1 to 5	COCCn1sc(Nc2c(OC)cccc2C(F)(F)F)c(C(=N)N(C)C)c1=O [Example 135]
< 1	Cc1cc(C)n2c1C=C1C=CC(CCC(=O)NCCOCCOCCn3sc(Nc4ccccc4C(F)(F)F)c(C#N)c3=O)=[N+]1[B-]2(F)F [Example 177]
< 1	COc1ccc(Cn2sc(Nc3ccccc3)c(C#N)c2=O)cc1 [Example 88]

IC50 [µM]	SMILES
1 to 5	N=C(c1c(Nc2cccc(Cl)c2Cl)s[nH]c1=O)N1CCOCC1 [Example 136]
< 1	Cn1sc(Nc2c(Cl)ccc3c2CCN3)c(C#N)c1=O [Example 72]
1 to 5	N#Cc1c(O)nsc1Nc1ccc(C(F)(F)F)cc1 [Example 13]
< 1	COCCn1sc(Nc2cccc3ncccc23)c(C#N)c1=O [Example 95]
< 1	N#Cc1c(Nc2ccccc2C(F)(F)F)sn(CC(N)=O)c1=O [Example 38]
1 to 5	N#Cc1c(Nc2ccc3c(c2)ncn3[C@H]2CCNC2)s[nH]c1=O [Example 151]
> 5	O=c1[nH]sc(Nc2ccccc2C(F)(F)F)c1-c1ccccc1 [Example 168]
< 1	Cn1sc(Nc2ccc(Cl)c3c2CCCO3)c(C#N)c1=O [Example 85]
< 1	Cn1sc(Nc2c(Br)ccc3ncccc23)c(C#N)c1=O [Example 50]
> 5	COc1cccc(C#N)c1Nc1sn(CC(C)(C)O)c(=O)c1C(=O)N1CCOCC1 [Example 154]
> 5	COC(=O)c1c(Nc2ccccc2C(F)(F)F)s[nH]c1=O [Example 123]
< 1	N#Cc1c(Nc2c(Cl)cccc2Cl)sn(CCC(N)=O)c1=O [Example 79]
< 1	N#Cc1c(Nc2ccccc2C(F)(F)F)sn(CC2CCCO2)c1=O (centres unmarked) [Example 76]
< 1	N#Cc1c(Nc2cccc(Br)c2C(F)(F)F)s[nH]c1=O [Example 49]
> 5	N#Cc1c(Nc2cccc(C(=O)O)c2C(F)(F)F)s[nH]c1=O [Example 120]
> 5	N#Cc1c(Nc2cccc(C3CCCNC3)c2C(F)(F)F)s[nH]c1=O (centres unmarked) [Example 157]
1 to 5	NC(=O)c1c(O)nsc1Nc1ccccc1OC(F)(F)F [Example 21]
< 1	COCCn1sc(Nc2ccccc2C(F)(F)F)c(C#N)c1=O [Example 51]
